The source made the active and inactive calls. The rule behind the calls is not given here.
Experiments:
Hep 3B2 [1] = assay: Induction of apoptosis in human Hep3B cells assessed as viable cells at 0.5 uM incubated for 48 hrs by annexin V-FITC/propidium iodide staining based flow cytometry analysis (reference value: 84.91%); format: functional; conditions: read-out: Activity
Hep 3B2 [2] = assay: Induction of apoptosis in human Hep3B cells assessed as early apoptotic cells at 0.5 uM incubated for 48 hrs by annexin V-FITC/propidium iodide staining based flow cytometry analysis (reference value: 4.69%); format: functional
Huh-7 [3] = assay: Induction of apoptosis in human Huh-7 cells assessed as necrotic cells at 0.5 uM incubated for 48 hrs by annexin V-FITC/propidium iodide staining based flow cytometry analysis (reference value: 5.20%); format: functional
Hep 3B2 [4] = assay: Induction of apoptosis in human Hep3B cells assessed as late apoptotic cells at 0.5 uM incubated for 48 hrs by annexin V-FITC/propidium iodide staining based flow cytometry analysis (reference value: 5.20%); format: functional
[5] = Antiproliferative activity against human L02 cells assessed as inhibition of cell proliferation incubated for 72 hrs by MTT assay; format: toxicity, cell-based
Huh-7 [6] = assay: Induction of apoptosis in human Huh-7 cells assessed as viable cells at 0.5 uM incubated for 48 hrs by annexin V-FITC/propidium iodide staining based flow cytometry analysis (reference value: 84.91%); format: functional; conditions: read-out: Activity
Huh-7 [7] = assay: Induction of apoptosis in human Huh-7 cells assessed as late apoptotic cells at 0.5 uM incubated for 48 hrs by annexin V-FITC/propidium iodide staining based flow cytometry analysis (reference value: 5.20%); format: functional
Hep 3B2 [8] = assay: Induction of apoptosis in human Hep3B cells assessed as necrotic cells at 0.5 uM incubated for 48 hrs by annexin V-FITC/propidium iodide staining based flow cytometry analysis (reference value: 5.20%); format: functional
Huh-7 [9] = assay: Induction of apoptosis in human Huh-7 cells assessed as early apoptotic cells at 0.5 uM incubated for 48 hrs by annexin V-FITC/propidium iodide staining based flow cytometry analysis (reference value: 4.59%); format: functional
[10] = target: T1, Fibroblast growth factor receptor 1 (Homo sapiens, UniProt P11362); conditions: dose 10.0 nM
Target sequence in this assay (P11362 22-822 limits assumed): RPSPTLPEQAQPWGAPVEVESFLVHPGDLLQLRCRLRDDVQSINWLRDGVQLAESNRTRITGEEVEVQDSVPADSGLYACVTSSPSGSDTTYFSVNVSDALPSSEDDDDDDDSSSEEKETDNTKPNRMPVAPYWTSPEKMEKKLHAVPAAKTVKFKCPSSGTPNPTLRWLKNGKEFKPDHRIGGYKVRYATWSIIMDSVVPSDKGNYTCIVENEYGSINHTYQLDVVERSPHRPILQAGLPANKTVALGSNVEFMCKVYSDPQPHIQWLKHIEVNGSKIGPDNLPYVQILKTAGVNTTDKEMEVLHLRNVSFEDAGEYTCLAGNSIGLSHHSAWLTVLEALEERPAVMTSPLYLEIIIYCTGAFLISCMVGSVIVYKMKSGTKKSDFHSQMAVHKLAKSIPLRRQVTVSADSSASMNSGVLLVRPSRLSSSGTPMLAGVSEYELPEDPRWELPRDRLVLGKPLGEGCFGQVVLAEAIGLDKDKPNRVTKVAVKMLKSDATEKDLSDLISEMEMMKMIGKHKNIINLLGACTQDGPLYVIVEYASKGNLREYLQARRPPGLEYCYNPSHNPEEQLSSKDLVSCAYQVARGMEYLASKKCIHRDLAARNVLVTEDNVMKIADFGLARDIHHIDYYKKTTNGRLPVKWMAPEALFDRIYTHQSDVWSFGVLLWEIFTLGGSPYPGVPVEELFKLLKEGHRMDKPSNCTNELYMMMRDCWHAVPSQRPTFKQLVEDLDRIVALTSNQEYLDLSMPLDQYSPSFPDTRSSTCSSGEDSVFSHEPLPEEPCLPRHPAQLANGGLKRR
Description: Inhibition of FGFR1 (unknown origin) at 10 nM incubated for 15 mins in presence of ATP relative to control

[11] = target: T1, Fibroblast growth factor receptor 1; conditions: dose 100.0 nM
Target sequence in this assay (P11362 22-822 limits assumed): as above
Description: Inhibition of FGFR1 (unknown origin) at 100 nM incubated for 15 mins in presence of ATP relative to control

[12] = target: Fibroblast growth factor receptor 4 (Homo sapiens) (UniProt P22455); conditions: dose 100.0 nM
Chain of Fibroblast growth factor receptor 4 (Homo sapiens) (P22455 22-802 limits assumed): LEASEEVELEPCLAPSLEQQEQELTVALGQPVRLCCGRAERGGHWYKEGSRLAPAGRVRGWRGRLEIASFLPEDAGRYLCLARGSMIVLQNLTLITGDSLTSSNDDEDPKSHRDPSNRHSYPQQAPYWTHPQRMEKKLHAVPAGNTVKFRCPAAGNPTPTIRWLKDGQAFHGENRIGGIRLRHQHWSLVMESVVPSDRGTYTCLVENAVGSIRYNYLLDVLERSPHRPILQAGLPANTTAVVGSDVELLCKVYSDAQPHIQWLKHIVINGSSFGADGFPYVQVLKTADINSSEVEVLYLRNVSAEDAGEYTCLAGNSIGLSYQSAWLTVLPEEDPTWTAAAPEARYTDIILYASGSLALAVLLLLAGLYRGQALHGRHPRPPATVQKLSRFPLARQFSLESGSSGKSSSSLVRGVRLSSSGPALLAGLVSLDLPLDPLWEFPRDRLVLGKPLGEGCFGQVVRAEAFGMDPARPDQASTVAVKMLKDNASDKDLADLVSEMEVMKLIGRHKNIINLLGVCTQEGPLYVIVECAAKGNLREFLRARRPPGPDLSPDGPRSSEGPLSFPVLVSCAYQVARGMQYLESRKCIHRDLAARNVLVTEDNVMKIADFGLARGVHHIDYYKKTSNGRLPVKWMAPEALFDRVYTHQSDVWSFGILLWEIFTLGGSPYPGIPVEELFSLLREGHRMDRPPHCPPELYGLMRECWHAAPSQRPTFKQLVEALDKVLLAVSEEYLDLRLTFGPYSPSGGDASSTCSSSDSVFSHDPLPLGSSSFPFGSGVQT
Description: Inhibition of FGFR4 (unknown origin) at 100 nM incubated for 15 mins in presence of ATP relative to control

[13] = target: Fibroblast growth factor receptor 4 (Homo sapiens) (UniProt P22455); conditions: dose 10.0 nM
Description: Inhibition of FGFR4 (unknown origin) at 10 nM incubated for 15 mins in presence of ATP relative to control

Huh-7 [14] = assay: cells; conditions: Homo sapiens, Huh-7, 72 h
Description: Antiproliferative activity against human Huh-7 cells assessed as inhibition of cell proliferation incubated for 72 hrs by MTT assay

[15] = target: T1, Fibroblast growth factor receptor 1; assay: Inhibition of FGFR1 (unknown origin) incubated for 15 mins in presence of ATP
Target sequence in this assay (P11362 whole entry): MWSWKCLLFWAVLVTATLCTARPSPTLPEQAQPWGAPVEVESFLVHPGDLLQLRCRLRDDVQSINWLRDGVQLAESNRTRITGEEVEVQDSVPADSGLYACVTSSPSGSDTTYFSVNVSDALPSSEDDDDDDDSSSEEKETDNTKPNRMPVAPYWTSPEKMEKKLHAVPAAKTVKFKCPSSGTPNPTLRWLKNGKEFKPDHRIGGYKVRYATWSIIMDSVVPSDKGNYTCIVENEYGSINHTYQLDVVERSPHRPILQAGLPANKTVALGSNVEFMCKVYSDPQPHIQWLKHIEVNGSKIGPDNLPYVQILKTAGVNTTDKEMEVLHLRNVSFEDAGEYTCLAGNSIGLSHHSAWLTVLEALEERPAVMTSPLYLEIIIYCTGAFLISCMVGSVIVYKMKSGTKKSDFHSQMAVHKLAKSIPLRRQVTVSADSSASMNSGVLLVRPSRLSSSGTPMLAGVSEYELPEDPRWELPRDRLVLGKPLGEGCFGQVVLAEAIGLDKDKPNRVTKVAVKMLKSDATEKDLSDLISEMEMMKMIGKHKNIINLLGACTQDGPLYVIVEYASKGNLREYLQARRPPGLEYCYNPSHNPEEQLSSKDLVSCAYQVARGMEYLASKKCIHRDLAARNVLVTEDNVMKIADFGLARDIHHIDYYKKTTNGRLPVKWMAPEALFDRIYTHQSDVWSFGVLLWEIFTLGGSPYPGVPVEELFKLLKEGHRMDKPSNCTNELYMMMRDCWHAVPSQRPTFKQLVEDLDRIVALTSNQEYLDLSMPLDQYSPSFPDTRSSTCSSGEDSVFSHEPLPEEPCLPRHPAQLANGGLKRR

Hep 3B2 [16] = assay: cells; conditions: Homo sapiens, Hep3B, 72 h
Description: Antiproliferative activity against human Hep3B cells assessed as inhibition of cell proliferation incubated for 72 hrs by MTT assay

Huh-7 [17] = assay: Antitumor activity against human Huh-7 cells xenografted in nude mouse assessed as tumor growth inhibition at 25 mg/kg, ip administered for 15 days; format: functional; conditions: Huh-7, 360 h, time 15 day, read-out: TGI
MDA-MB-231 = assay: cells; conditions: Homo sapiens, MDA-MB-231, 72 h
Description: Antiproliferative activity against human MDA-MB-231 cells assessed as inhibition of cell proliferation incubated for 72 hrs by MTT assay

[18] = GSH reactivity in potassium phosphate buffer at pH 7.4 assessed as half life at 1 uM measured at 2 to 1440 mins by LC-MS/MS analysis; format: physicochemical; conditions: potassium phosphate buffer with GSH, time 2-1440 min

Cc1ccc(C(=O)Nc2ccc(CN3CCN(C)CC3)c(C(F)(F)F)c2)cc1C#Cc1cnc2cccnn12 [PONATINIB]
viability at 0.5 µM (Hep 3B2 [1]): 68% | Activity (Hep 3B2 [2]): 5.14% | Activity (Huh-7 [3]): 3.28% | Activity (Hep 3B2 [4]): 20.3% | IC50 at 72 h [5]: 0.18 µM | viability at 0.5 µM (Huh-7 [6]): 75.5% | Activity (Huh-7 [7]): 18.5% | Activity (Hep 3B2 [8]): 6.56% | Activity (Huh-7 [9]): 2.74%

Cc1ccc(C(=O)Nc2ccc(CN3CCN(C)CC3)c(C(F)(F)F)c2)cc1C#Cc1cnc(Nc2c(C)cccc2NC(=O)CCl)nc1
inhibition [10]: 0.2% | inhibition [11]: inactive

C/C=C/C(=O)Nc1cccc(C)c1Nc1ncc(C#Cc2cc(C(=O)Nc3ccc(CN4CCN(C)CC4)c(C(F)(F)F)c3)ccc2C)cn1
inhibition [10]: inactive | inhibition [11]: inactive

Cc1ccc(C(=O)Nc2ccc(C(=O)N3CCN(C)CC3)c(C)c2)cc1C#Cc1cnc(Nc2c(C)cccc2NC(=O)/C=C/CN(C)C)nc1
inhibition [10]: 0.6% | inhibition [12]: inactive | inhibition [13]: inactive | inhibition [11]: inactive

C=CC(=O)Nc1cccc(C)c1Nc1ncc2cc(-c3c(Cl)c(OC)cc(OC)c3Cl)ccc2n1
IC50 (Huh-7 [14]): 490 nM | IC50 [15]: 559 nM | IC50 at 72 h [5]: > 10 µM | IC50 (Hep 3B2 [16]): 810 nM | inhibition in vivo at 25 mg/kg (Huh-7 [17]): 61.8% | IC50 (MDA-MB-231): 4.26 µM | half-life at 1 µM [18]: 60.1 min

C=CC(=O)Nc1cccc(C)c1Nc1ccc(C#Cc2cc(C(=O)Nc3ccc(CN4CCN(C)CC4)c(C(F)(F)F)c3)ccc2C)cn1
IC50 (Huh-7 [14]): 520 nM | IC50 [15]: > 500 nM | IC50 at 72 h [5]: > 10 µM | IC50 (Hep 3B2 [16]): 660 nM | IC50 (MDA-MB-231): 3.53 µM

Cc1ccc(C(=O)Nc2ccc(C(=O)N3CCN(C)CC3)c(C(F)(F)F)c2)cc1C#Cc1cnc(Nc2c(C)cccc2NC(=O)/C=C/CN(C)C)nc1
inhibition [10]: 2.2% | inhibition [12]: inactive | inhibition [13]: inactive | inhibition [11]: inactive

CN(C)C/C=C/C(=O)Nc1cc2c(Nc3ccc(F)c(Cl)c3)ncnc2cc1O[C@H]1CCOC1 [AFATINIB]
half-life at 1 µM [18]: 30.1 min

C=CC(=O)Nc1cccc(C)c1Nc1ncc(C#Cc2cc(C(=O)Nc3ccc(CN4CCN(C)CC4)c(C(F)(F)F)c3)ccc2C)cn1
IC50 (Huh-7 [14]): 1630 nM | IC50 at 72 h [5]: > 10 µM | IC50 (Hep 3B2 [16]): 430 nM | IC50 (MDA-MB-231): 4.33 µM

C=CC(=O)Nc1cccc(C)c1Nc1ncc(C#Cc2ccc(C)c(C(=O)Nc3ccc(CN4CCN(C)CC4)c(C(F)(F)F)c3)c2)cn1
inhibition [10]: 0.3% | inhibition [11]: inactive

Cc1ccc(C(=O)Nc2ccc(CN3CCN(C)CC3)c(C(F)(F)F)c2)cc1C#Cc1cnc(Nc2c(C)cccc2NC(=O)/C=C/CN(C)C)nc1
IC50 (Huh-7 [14]): 1620 nM | IC50 [15]: 863 nM | IC50 at 72 h [5]: > 10 µM | IC50 (Hep 3B2 [16]): 920 nM | IC50 (MDA-MB-231): 1.25 µM

CC(C)=CC(=O)Nc1cccc(C)c1Nc1ncc(C#Cc2cccc(C(=O)Nc3ccc(CN4CCN(C)CC4)c(C(F)(F)F)c3)c2)cn1
inhibition [12]: < 10%

C=CC(=O)Nc1cccc(Cl)c1Nc1ncc(C#Cc2cc(C(=O)Nc3ccc(CN4CCN(C)CC4)c(C(F)(F)F)c3)ccc2C)cn1
IC50 (Huh-7 [14]): 410 nM | IC50 [15]: > 500 nM | IC50 at 72 h [5]: > 10 µM | IC50 (Hep 3B2 [16]): 870 nM | IC50 (MDA-MB-231): 4.01 µM

C=CC(=O)Nc1ccccc1Nc1ncc(C#Cc2cc(C(=O)Nc3ccc(CN4CCN(C)CC4)c(C(F)(F)F)c3)ccc2C)cn1
IC50 (Huh-7 [14]): 680 nM | IC50 at 72 h [5]: > 10 µM | IC50 (Hep 3B2 [16]): 770 nM | IC50 (MDA-MB-231): 2.24 µM

— ChEMBL document CHEMBL6121004, “Design, synthesis, and biological evaluation of Ponatinib-based N-Phenylpyrimidine-2-amine derivatives as novel fibroblast growth factor receptor 4 (FGFR4) selective inhibitors” (Eur J Med Chem, 2025)
